The values that follow come from the NIST ThermoML archive (doi:10.1021/acs.jced.8b00554).

Numbers after ± are expanded uncertainties.

A short description of this data set: refractive index (Na D-line) (dimensionless). The conditions noted are these: 101.33 kPa, Liquid, Standard Abbe refractometry.

As to `CCCCCCCCCC` [decane], the refractive index (commonly the speed of light in vacuum divided by its phase velocity in the sample) (298.15 K) was 1.4091 ± 0.004. As for `CCCO` [propan-1-ol], the refractive index (293.15 K) worked out at 1.3852 ± 0.004.

Turning to `CCCCCCCCC` [nonane], the refractive index (293.15 K) was 1.4056 ± 0.004. As for `CCCCCCCC` [octane], the refractive index (298.15 K) is given as 1.398 ± 0.004.
